Measurements as given in patent US6518243B1, “Desleucyl glycopeptide antibiotics and methods of making same” (Trustees of Princeton University, priority 1999, dated 2003).

Tests used:
Type in all cases: cell-based
S. aureus (ATCC 29213) = experiment: Zone of inhibition screen, 96 well agar array format; set-up: scale not given here
In short: (§1)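 Antibacterial testing on a 96-well agar array; each compound screened separately.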

[1] = system: S. epidermidis (ATCC 12228); experiment: as above; set-up: scale not given here
In short: as §1

E. faecium ATCC 49624 = experiment: MIC determination in BHI media, OD600; settings: BHI + 0.1% casamino acids, 18 hours at 37° C., ≧90% OD600 inhibition
Procedure: (§2) Logarithmically growing cells were diluted to approximately 5×10^5 CFU/ml and subjected to test compounds solubilized and serially diluted in DMSO. […] After 18 hours at 37° C., the OD600 was determined by reading the ninety-six well microtiter plates on a microplate reader. For a given concentration, an MIC determination was made if: […]

S aureus ATCC 29213 = experiment: MIC determination in BHI media, OD600; settings: BHI + 0.1% casamino acids, 18 hours at 37° C., ≧90% OD600 inhibition
Procedure: as §2

S. Aureus ATCC 33591 = experiment: MIC determination in BHI media, OD600; settings: BHI + 0.1% casamino acids, 18 hours at 37° C., ≧90% OD600 inhibition
Procedure: as §2

E. faecalis (CL 4877) = experiment: Zone of inhibition screen, 96 well agar array format; set-up: scale not given here; settings: zone of inhibition relative to 1 mg/ml p-chlorobiphenylvancomycin
In short: as §1

[2] = zone of inhibition relative to 1 mg/ml stock solution of p-chlorobiphenylvancomycin
[3] = zone of inhibition relative to 1 mg/ml p-chlorobiphenylvancomycin

Row | Compound | zone score, S. aureus ATCC 29213 (S. aureus (ATCC 29213); [2]) | zone score, S. epidermidis ATCC 12228 [1, 2] | MIC E. faecium ATCC 49624 (E. faecium ATCC 49624) [µg/mL] | MIC S. aureus ATCC 29213 (S aureus ATCC 29213) [µg/mL] | MIC S. aureus ATCC 33591 (S. Aureus ATCC 33591) [µg/mL] | zone score, E. faecalis CL 4877 (E. faecalis (CL 4877)) | zone score, S. aureus ATCC 29213 (S. aureus (ATCC 29213); [3]) | zone score, S. epidermidis ATCC 12228 [1, 3]
1 | C[C@H]1O[C@H](O[C@H]2[C@H](Oc3c4cc5cc3Oc3ccc(cc3Cl)[C@@H](O)[C@@H](NC(=O)[C@@H](N)Cc3c[nH]c6ccccc36)C(=O)N[C@@H](CC(N)=O)C(=O)N[C@H]5C(=O)N[C@H]3C(=O)N[C@H](C(=O)N[C@@H](C(=O)O)c5cc(O)cc(O)c5-c5cc3ccc5O)[C@H](O)c3ccc(c(Cl)c3)O4)O[C@H](CO)[C@@H](O)[C@@H]2O)C[C@@](C)(NCc2ccc(-c3ccc(Cl)cc3)cc2)[C@H]1O [Compound 12] | 2 | 2 | 0.39 | 0.78 | 0.78 | – | – | –
2 | CC1OC(OC2C(Oc3c4cc5cc3Oc3ccc(cc3Cl)C(O)C3NC(=O)C(NC(=O)C5NC(=O)C(CC(N)=O)NC(=O)C(NC(=O)CNC(=O)CNC(=O)CN)C(O)c5ccc(c(Cl)c5)O4)c4ccc(O)c(c4)-c4c(O)cc(O)cc4C(C(=O)O)NC3=O)OC(CO)C(O)C2O)CC(C)(NCc2ccc(-c3ccc(Cl)cc3)cc2)C1O (centres unmarked) [Compound 67] | 2 | 2 | 0.78 | 0.78 | 0.78 | – | – | –
3 | COCCOCC(=O)NC1C(=O)NC(CC(N)=O)C(=O)NC2C(=O)NC3C(=O)NC(C(=O)NC(C(=O)O)c4cc(O)cc(O)c4-c4cc3ccc4O)C(O)c3ccc(c(Cl)c3)Oc3cc2cc(c3OC2OC(CO)C(O)C(O)C2OC2CC(C)(NCc3ccc(-c4ccc(Cl)cc4)cc3)C(O)C(C)O2)Oc2ccc(cc2Cl)C1O (centres unmarked) [Compound 100] | 2 | – | 0.78 | 0.25 | 0.78 | – | – | –
4 | Cc1oncc1C(=O)NC1C(=O)NC(CC(N)=O)C(=O)NC2C(=O)NC3C(=O)NC(C(=O)NC(C(=O)O)c4cc(O)cc(O)c4-c4cc3ccc4O)C(O)c3ccc(c(Cl)c3)Oc3cc2cc(c3OC2OC(CO)C(O)C(O)C2OC2CC(C)(NCc3ccc(-c4ccc(Cl)cc4)cc3)C(O)C(C)O2)Oc2ccc(cc2Cl)C1O (centres unmarked) [Compound 275] | – | – | – | – | – | 2 | 2 | 2
5 | CC1OC(OC2C(Oc3c4cc5cc3Oc3ccc(cc3Cl)C(O)C3NC(=O)C(NC(=O)C5NC(=O)C(CC(N)=O)NC(=O)C(NC(=O)c5ccc6[nH]nnc6c5)C(O)c5ccc(c(Cl)c5)O4)c4ccc(O)c(c4)-c4c(O)cc(O)cc4C(C(=O)O)NC3=O)OC(CO)C(O)C2O)CC(C)(NCc2ccc(-c3ccc(Cl)cc3)cc2)C1O (centres unmarked) [Compound 281] | – | – | – | – | – | 2 | 2 | 2
6 | CC1OC(OC2C(Oc3c4cc5cc3Oc3ccc(cc3Cl)C(O)C3NC(=O)C(NC(=O)C5NC(=O)C(CC(N)=O)NC(=O)C(NC(=O)C(F)F)C(O)c5ccc(c(Cl)c5)O4)c4ccc(O)c(c4)-c4c(O)cc(O)cc4C(C(=O)O)NC3=O)OC(CO)C(O)C2O)CC(C)(NCc2ccc(-c3ccc(Cl)cc3)cc2)C1O (centres unmarked) [Compound 285] | – | – | – | – | – | 2 | 2 | 2
7 | CC1OC(OC2C(Oc3c4cc5cc3Oc3ccc(cc3Cl)C(O)C(NC(=O)C(F)(F)C(F)(F)C(F)(F)F)C(=O)NC(CC(N)=O)C(=O)NC5C(=O)NC3C(=O)NC(C(=O)NC(C(=O)O)c5cc(O)cc(O)c5-c5cc3ccc5O)C(O)c3ccc(c(Cl)c3)O4)OC(CO)C(O)C2O)CC(C)(NCc2ccc(-c3ccc(Cl)cc3)cc2)C1O (centres unmarked) [Compound 290] | – | – | – | – | – | 2 | 2 | 2
8 | CC1OC(OC2C(Oc3c4cc5cc3Oc3ccc(cc3Cl)C(O)C3NC(=O)C(NC(=O)C5NC(=O)C(CC(N)=O)NC(=O)C(NC(=O)c5cc6ccccc6[nH]5)C(O)c5ccc(c(Cl)c5)O4)c4ccc(O)c(c4)-c4c(O)cc(O)cc4C(C(=O)O)NC3=O)OC(CO)C(O)C2O)CC(C)(NCc2ccc(-c3ccc(Cl)cc3)cc2)C1O (centres unmarked) [Compound 291] | – | – | – | – | – | 2 | 2 | 2
9 | C=C(CC(=O)OC)C(=O)NC1C(=O)NC(CC(N)=O)C(=O)NC2C(=O)NC3C(=O)NC(C(=O)NC(C(=O)O)c4cc(O)cc(O)c4-c4cc3ccc4O)C(O)c3ccc(c(Cl)c3)Oc3cc2cc(c3OC2OC(CO)C(O)C(O)C2OC2CC(C)(NCc3ccc(-c4ccc(Cl)cc4)cc3)C(O)C(C)O2)Oc2ccc(cc2Cl)C1O (centres unmarked) [Compound 293] | – | – | – | – | – | 2 | 2 | 2
10 | CC1OC(OC2C(Oc3c4cc5cc3Oc3ccc(cc3Cl)C(O)C3NC(=O)C(NC(=O)C5NC(=O)C(CC(N)=O)NC(=O)C(NC(=O)c5ccccc5SCCS(=O)(=O)c5ccc(Cl)cc5)C(O)c5ccc(c(Cl)c5)O4)c4ccc(O)c(c4)-c4c(O)cc(O)cc4C(C(=O)O)NC3=O)OC(CO)C(O)C2O)CC(C)(NCc2ccc(-c3ccc(Cl)cc3)cc2)C1O (centres unmarked) [Compound 301] | – | – | – | – | – | 2 | 2 | 2
11 | CC1OC(OC2C(Oc3c4cc5cc3Oc3ccc(cc3Cl)C(O)C3NC(=O)C(NC(=O)C5NC(=O)C(CC(N)=O)NC(=O)C(NC(=O)c5ccccn5)C(O)c5ccc(c(Cl)c5)O4)c4ccc(O)c(c4)-c4c(O)cc(O)cc4C(C(=O)O)NC3=O)OC(CO)C(O)C2O)CC(C)(NCc2ccc(-c3ccc(Cl)cc3)cc2)C1O (centres unmarked) [Compound 312] | – | – | – | – | – | 2 | 2 | 2
12 | CC1OC(OC2C(Oc3c4cc5cc3Oc3ccc(cc3Cl)C(O)C3NC(=O)C(NC(=O)C5NC(=O)C(CC(N)=O)NC(=O)C(NC(=O)c5cccc[n+]5[O-])C(O)c5ccc(c(Cl)c5)O4)c4ccc(O)c(c4)-c4c(O)cc(O)cc4C(C(=O)O)NC3=O)OC(CO)C(O)C2O)CC(C)(NCc2ccc(-c3ccc(Cl)cc3)cc2)C1O (centres unmarked) [Compound 313] | – | – | – | – | – | 2 | 2 | 2
13 | CC(=O)C(=O)NC1C(=O)NC(CC(N)=O)C(=O)NC2C(=O)NC3C(=O)NC(C(=O)NC(C(=O)O)c4cc(O)cc(O)c4-c4cc3ccc4O)C(O)c3ccc(c(Cl)c3)Oc3cc2cc(c3OC2OC(CO)C(O)C(O)C2OC2CC(C)(NCc3ccc(-c4ccc(Cl)cc4)cc3)C(O)C(C)O2)Oc2ccc(cc2Cl)C1O (centres unmarked) [Compound 314] | – | – | – | – | – | 2 | 2 | 2
14 | CC1OC(OC2C(Oc3c4cc5cc3Oc3ccc(cc3Cl)C(O)C3NC(=O)C(NC(=O)C5NC(=O)C(CC(N)=O)NC(=O)C(NC(=O)C=Cc5c[nH]cn5)C(O)c5ccc(c(Cl)c5)O4)c4ccc(O)c(c4)-c4c(O)cc(O)cc4C(C(=O)O)NC3=O)OC(CO)C(O)C2O)CC(C)(NCc2ccc(-c3ccc(Cl)cc3)cc2)C1O (centres unmarked) [Compound 321] | – | – | – | – | – | 2 | 2 | 2
15 | COCCC(N)C(=O)NC1C(=O)NC(CC(N)=O)C(=O)NC2C(=O)NC3C(=O)NC(C(=O)NC(C(=O)O)c4cc(O)cc(O)c4-c4cc3ccc4O)C(O)c3ccc(c(Cl)c3)Oc3cc2cc(c3OC2OC(CO)C(O)C(O)C2OC2CC(C)(NCc3ccc(-c4ccc(Cl)cc4)cc3)C(O)C(C)O2)Oc2ccc(cc2Cl)C1O (centres unmarked) [Compound 322] | – | – | – | – | – | 2 | 2 | 2
16 | CC(O)C(N)C(=O)NC1C(=O)NC(CC(N)=O)C(=O)NC2C(=O)NC3C(=O)NC(C(=O)NC(C(=O)O)c4cc(O)cc(O)c4-c4cc3ccc4O)C(O)c3ccc(c(Cl)c3)Oc3cc2cc(c3OC2OC(CO)C(O)C(O)C2OC2CC(C)(NCc3ccc(-c4ccc(Cl)cc4)cc3)C(O)C(C)O2)Oc2ccc(cc2Cl)C1O (centres unmarked) [Compound 323] | – | – | – | – | – | 2 | 2 | 2
17 | CNC(COCc1ccccc1)C(=O)NC1C(=O)NC(CC(N)=O)C(=O)NC2C(=O)NC3C(=O)NC(C(=O)NC(C(=O)O)c4cc(O)cc(O)c4-c4cc3ccc4O)C(O)c3ccc(c(Cl)c3)Oc3cc2cc(c3OC2OC(CO)C(O)C(O)C2OC2CC(C)(NCc3ccc(-c4ccc(Cl)cc4)cc3)C(O)C(C)O2)Oc2ccc(cc2Cl)C1O (centres unmarked) [Compound 331] | – | – | 0.39 | 0.78 | 0.78 | – | – | –
18 | CC1OC(OC2C(Oc3c4cc5cc3Oc3ccc(cc3Cl)C(O)C3NC(=O)C(NC(=O)C5NC(=O)C(CC(N)=O)NC(=O)C(NC(=O)C(N)Cc5c[nH]cn5)C(O)c5ccc(c(Cl)c5)O4)c4ccc(O)c(c4)-c4c(O)cc(O)cc4C(C(=O)O)NC3=O)OC(CO)C(O)C2O)CC(C)(NCc2ccc(-c3ccc(Cl)cc3)cc2)C1O (centres unmarked) [Compound 555] | – | – | 0.39 | 0.78 | 0.39 | – | – | –
